# Literature values, collected in patent US20120295796A1, “System and Method of Predicting Chemical Interaction and Functionality of Molecules” (VASSA INFORMATICS, priority 2010, published 2012).
# What was measured:
# [1] = biological target: EGFR (Homo sapiens, UniProt P00533); settings: search utilizing the entire binding site
# [2] = biological target: T1, HMG-CoA reductase (Homo sapiens, UniProt P04035); settings: hit of Lipitor search, not structurally similar to Lipitor
# T1 sequence (P04035 426-888 limits assumed): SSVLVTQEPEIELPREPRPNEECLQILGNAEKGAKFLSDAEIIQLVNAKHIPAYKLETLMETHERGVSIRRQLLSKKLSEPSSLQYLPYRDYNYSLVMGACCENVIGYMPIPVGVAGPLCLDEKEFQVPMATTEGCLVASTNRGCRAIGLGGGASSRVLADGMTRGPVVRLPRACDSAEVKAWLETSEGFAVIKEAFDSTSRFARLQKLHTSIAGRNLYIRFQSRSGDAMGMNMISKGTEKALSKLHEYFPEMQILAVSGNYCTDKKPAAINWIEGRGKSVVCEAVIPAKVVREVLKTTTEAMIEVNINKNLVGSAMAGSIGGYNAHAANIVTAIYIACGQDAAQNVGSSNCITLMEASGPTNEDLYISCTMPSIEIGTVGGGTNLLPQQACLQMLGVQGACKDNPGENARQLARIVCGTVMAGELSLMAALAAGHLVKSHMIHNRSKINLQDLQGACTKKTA
# Chain of EGFR (P00533 25-1210): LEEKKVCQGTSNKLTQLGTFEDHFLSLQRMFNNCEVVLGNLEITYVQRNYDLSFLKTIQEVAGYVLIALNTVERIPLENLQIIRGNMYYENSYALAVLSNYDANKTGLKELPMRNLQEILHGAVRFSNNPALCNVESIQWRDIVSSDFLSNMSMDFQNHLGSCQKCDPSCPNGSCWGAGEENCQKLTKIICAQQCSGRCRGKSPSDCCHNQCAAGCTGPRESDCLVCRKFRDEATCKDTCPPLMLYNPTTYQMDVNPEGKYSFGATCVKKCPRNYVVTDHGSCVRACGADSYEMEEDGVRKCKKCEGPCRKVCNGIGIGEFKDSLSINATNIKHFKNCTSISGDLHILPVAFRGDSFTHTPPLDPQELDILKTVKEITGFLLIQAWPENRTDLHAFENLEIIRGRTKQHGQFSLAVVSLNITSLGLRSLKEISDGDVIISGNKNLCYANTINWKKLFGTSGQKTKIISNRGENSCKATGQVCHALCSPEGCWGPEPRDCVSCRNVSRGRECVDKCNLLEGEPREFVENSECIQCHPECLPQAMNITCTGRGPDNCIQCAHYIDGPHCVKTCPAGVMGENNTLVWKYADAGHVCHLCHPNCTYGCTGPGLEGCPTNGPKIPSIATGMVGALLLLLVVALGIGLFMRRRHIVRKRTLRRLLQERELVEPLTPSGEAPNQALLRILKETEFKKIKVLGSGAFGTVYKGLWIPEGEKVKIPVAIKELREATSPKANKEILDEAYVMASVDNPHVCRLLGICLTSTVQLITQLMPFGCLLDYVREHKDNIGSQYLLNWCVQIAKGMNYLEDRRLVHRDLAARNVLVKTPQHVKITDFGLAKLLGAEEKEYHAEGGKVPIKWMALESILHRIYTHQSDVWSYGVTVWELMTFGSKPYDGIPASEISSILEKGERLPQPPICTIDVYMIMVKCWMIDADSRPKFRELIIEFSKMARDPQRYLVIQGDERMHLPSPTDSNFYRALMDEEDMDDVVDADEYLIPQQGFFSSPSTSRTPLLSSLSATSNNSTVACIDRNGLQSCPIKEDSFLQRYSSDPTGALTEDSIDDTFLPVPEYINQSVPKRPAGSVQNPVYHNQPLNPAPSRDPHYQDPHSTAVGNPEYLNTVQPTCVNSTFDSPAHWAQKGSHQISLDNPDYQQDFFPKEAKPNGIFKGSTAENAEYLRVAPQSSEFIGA
binder status at the Tarceva binding site (ADP binding site) [1],known binding to HMG-CoA reductase (search result category Known Binders) [2],Structure (SMILES)
already known or suspected as binders,–,Nc1ncnc2c1ncn2[C@@H]1O[C@H](COP(=O)(O)OP(=O)(O)O)[C@@H](O)[C@H]1O [ADP]
already known or suspected as binders,–,Nc1ncnc2c1ncn2[C@@H]1O[C@H](COP(=O)(O)O)[C@@H](O)[C@H]1O [AMP]
–,binds HinG-CoA reductase,CC(C)(COP(=O)(O)OP(=O)(O)OC[C@H]1O[C@@H](n2cnc3c(N)ncnc32)[C@H](O)[C@@H]1OP(=O)(O)O)[C@@H](O)C(=O)NCCC(=O)NCCS [Coenzyme A]

Structure (SMILES),binder status at the Tarceva binding site (ADP binding site) [1],known binding to HMG-CoA reductase (search result category Known Binders) [2]
Nc1ncnc2c1ncn2[C@@H]1O[C@H](COP(=O)(O)OP(=O)(O)OP(=O)(O)O)[C@@H](O)[C@H]1O [ATP],already known or suspected as binders,–
